According to patent publication US5627171A, “Sphingosine-1-phosphate/trimethylsphingosine composition” (Oncomembrane, Inc., priority 1994, dated 1997):
Like-named read-outs stand apart in the source and are kept apart here.

How the values were obtained:
[1] = test system: B16BL6 melanoma cells; set-up: key: +++: + graded effectiveness; ++: + graded effectiveness; + graded effectiveness; - not effective; settings: cited from earlier work
[2] = test system: platelet activation; set-up: key: +++: + graded effectiveness; ++: + graded effectiveness; + graded effectiveness; - not effective; settings: cited from earlier work
[3] = test system: protein kinase C; set-up: key: +++: + graded effectiveness; ++: + graded effectiveness; + graded effectiveness; - not effective; settings: cited from earlier work
[4] = test system: BL6 cell line; experiment: Spontaneous metastasis model: subcutaneous BL6 cells, lung colonization; assay type: in vivo; settings: mice, BL6 cells s.c.; liposomes i.v. on days 5, 10, 15, 20, 25, 30; primary tumor excised day 21; assessed day 35
Experimental: As an example, mice were injected subcutaneously with the metastatic and invasive BL6 cell line (Hart et al., Amer. J. Path., 97, 587, 1979; Poote et al., Canc. Res., 42, 2770, 1982) (1×10^5 cells in 0.05 ml of Dulbecco-modified Eagle's medium). A single intravenous injection of the 10:1 liposomal TMS/Sph-1-P composition described hereinabove was administered on days 5, 10, 15, 20, 25 and 30. The primary tumor was excised on day 21 and lung colonization was assessed on day 35. […] Controls comprised liposomes containing TMS alone, liposomes containing Sph-1-P alone, liposomes containing medium or medium alone with no liposomes.
Then the instant composition encapsulated in liposomes is administered to the hosts, see FIG. 9A.
(§1) In either model, the number of lung tumor colonies is ascertained macroscopically and microscopically following a course of repeated liposome administration.

[5] = test system: tumor cells; experiment: Experimental metastasis model: intravenous injection of tumor cells, lung tumor colonies; assay type: in vivo; settings: tumor cells i.v.; number of lung tumor colonies
Description: as §1

[6] = preincubation with free derivative

Row | SMILES | Inhibition of metastasis ([1]; no footnote on formulation) | Inhibition of PA [2] | PKC inhibition [3] | Inhibition of metastasis [1, 6] | Inhibition of metastasis ([1]; liposomal formulation was used) | Lung colony number (lung colonization) [4] | Effect in the experimental metastasis model [5] | Inhibition of metastasis ([1]; free derivative and liposomal formulation were used)
1 | CCCCCCCCCCCCCC#C[C@@H](O)[C@H](CO)[N+](C)(C)C [4-alkyn-TMS] | + | ++ | +++ |  |  |  |  | 
2 | CCCCCCCCCCCCCC(F)/C=C/[C@H](CO)[N+](C)(C)C (some centres unmarked) [5F-TMS] | +++ | +++ | +++ |  |  |  |  | 
3 | C[N+](C)(C)[C@@H](CO)[C@H](O)/C=C/CCCCCCCCCCCCC(=O)O [Carboxy TMS] |  | - | - | - |  |  |  | 
4 | CCCCCCCCCCCCCCC[C@@H](O)[C@H](CO)[N+](C)(C)C [DHTMS] |  | ++ | +++ |  | + |  |  | 
5 | COC(=O)CCCCCCCCCCCC/C=C/[C@@H](O)[C@H](CO)[N+](C)(C)C [Methylcarboxy TMS] |  | - | - | - |  |  |  | 
6 | C[N+](C)(C)[C@@H](CO)[C@H](O)c1ccccc1 [NTPS] |  | - | - | - |  |  |  | 
7 | CCCCCCCCCCCCC/C=C/[C@@H](O)[C@@H](N)COP(=O)(O)O [Sph-1-P, sphingosine-1-phosphate] |  |  |  |  |  | no different in effect from medium alone or liposomes containing medium only |  | 
8 | CCCCCCCCCCCCC/C=C/[C@@H](O)[C@H](CO)[N+](C)(C)C [TMS, N,N,N-trimethylsphingosine] |  | +++ | +++ |  |  |  | strong effect | +++
